Measurements from PMC6934184, “Selective DNA-PKcs inhibition extends the therapeutic index of localized radiotherapy and chemotherapy” (The Journal of Clinical Investigation, 2019).

Target: T1, MAPK11 (p38 beta) (Homo sapiens, UniProt Q15759)
T1 construct: purchased Thermo Fisher Scientific (Life Technologies) SelectScreen
Assay: SelectScreen Z'LYTE
Format: biochemical
How it was run: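 SelectScreen broad panel; activity (Z'LYTE, Adapta) plus binding formats. ATP: Km app for CSF1R Z'LYTE; 10 for CAMK1 Adapta. Readout = % per kinase.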

T1 sequence (Q15759 whole entry): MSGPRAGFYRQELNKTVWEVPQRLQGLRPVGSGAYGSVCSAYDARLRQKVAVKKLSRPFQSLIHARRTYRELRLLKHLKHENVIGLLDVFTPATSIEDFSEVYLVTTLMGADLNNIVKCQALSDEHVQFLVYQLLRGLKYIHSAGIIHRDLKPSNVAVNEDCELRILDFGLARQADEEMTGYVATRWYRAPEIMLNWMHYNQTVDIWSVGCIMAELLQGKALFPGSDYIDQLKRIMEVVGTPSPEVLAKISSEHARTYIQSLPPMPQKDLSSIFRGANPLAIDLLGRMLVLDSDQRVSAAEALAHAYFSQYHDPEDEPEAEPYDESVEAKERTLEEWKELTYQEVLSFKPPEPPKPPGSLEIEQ

CN(C(=O)CN1CCOCC1)c1ccc2sc3c(-c4cccc5c(=O)cc(N6CC7CCC(C6)O7)oc45)cccc3c2c1 [NU5455]
inhibition at 1 µM: 9.5%
